What was measured:
[1] = tested on: cytochrome P450 2B1-negative cells (parental 9L and 9L-Z); experiment: Drug sensitivity of cultured 9L cells; format: cell-based, rat; settings: 5 days
Method: (§1) To test for drug sensitivity, 1×10^5 cells were plated in 30-mm tissue culture plates (Falcon 3046) in duplicate. Drugs were added 18-24 hours after seeding. Cells were allowed to grow for times ranging up to 5 days after drug treatment, and the final cell number was then determined. Cells were rinsed with phosphate buffered saline or Hank's buffered saline, dispersed using trypsin-EDTA (GIBCO/BRL, Inc.), and then counted with a hemocytometer. Results are expressed as a growth ratio, i.e., the number of cells in plates containing drug as a percentage of the corresponding drug-free controls (mean±range of duplicate determinations).

[2] = tested on: cytochrome P450 2B1-positive cells (9L-ZP and L450-2); settings: 5 days
[3] = tested on: mixed culture of 9L and 9L-ZP cells; experiment: Cytotoxicity toward mixed cultures; format: cell-based, rat; settings: 10 μM metyrapone
Method: FIG. 28 is a bar graph depicting the cytotoxicity of oxazaphosphorines toward mixed cultures of 9L and 9L-ZP cells. Equal numbers of parental 9L cells were mixed with 9L-ZP cells (total initial cell number=1×10^5 /30 mm tissue culture dish). […] Cell numbers were determined 5 days after beginning drug treatment. Data (mean ±range of duplicates) are expressed as growth ratio (%) relative to drug-free controls.
as §1

[4] = tested on: parental 9L cells co-cultured with 9L-ZP cells; experiment: Co-culture experiments with culture inserts; format: cell-based, rat; settings: 10 μM metyrapone
Method: Co-culture Experiments: Parental 9L cells were plated in the bottom wells of culture plates (Falcon 3502), and cytochrome P450 2B1-negative or cytochrome P450 2B1-positive cells were plated into 25 mm cell culture inserts (0.45 μm pore size, Falcon 3090). Culture media were removed 18-24 hours later by aspiration. Culture medium without drug (1.0 mL) was added to the bottom well, and 1.0 mL medium containing drug was added to the upper cell culture insert. Cell numbers were determined 5 days later, as described above.

[5] = tested on: 9L-ZP cells; experiment: Drug sensitivity of cultured 9L cells with or without metyrapone; settings: 10 μM metyrapone
[6] = tested on: C6 cells; experiment: Cell proliferation assay; format: cell-based, rat; settings: 0.5 mM, four days
Method: Cell proliferation assays: For cell proliferation assays, cells (2×10^5 per dish, unless otherwise noted) were plated onto 10 cm dishes. […] Incubations were continued for four days and cell numbers were assayed using a Coulter counter (Coulter Electronics Inc.), after harvesting in trypsinEDTA.

[7] = tested on: C6 cells; experiment: Trypsinization and replating assay; format: cell-based, rat; settings: Table V panel B; survivors of panel A replated, nine days
Method: Trypsinization and replating assay: To determine the temporal kinetics of CPA-mediated cytotoxicity, 2×10^6 cells were plated onto each 10 cm dish. Twenty-four hours later, 0.5 mM CPA was added and cells were incubated for the times indicated in each figure. Cells were then trypsinized and replated at a density of 2×10^5 cells/10 cm dish. Nine days later, cell numbers were evaluated by Coulter counting.

[8] = tested on: C6 cells exposed to CM from C6; experiment: C6 colony formation after conditioned medium from drug-exposed cells; format: cell-based, rat; settings: Table V panel C; CM from treated C6 cultures

In the case of `O=P1(N(CCCl)CCCl)NC(OO)CCO1` (centres unmarked) [4-hydroperoxy cyclophosphamide], the “Sensitivity to activated cyclophosphamide” value [1] is reported as “inherently sensitive” and the “Sensitivity to activated cyclophosphamide” value [2] is reported as “inherently sensitive”.

For `CC(C)(C(=O)c1cccnc1)c1cccnc1` [metyrapone], the “Effect on cyclophosphamide killing of mixed culture” value [3] was “largely abrogate”, the “Effect on cyclophosphamide killing of both cell populations” value [4] was “effectively blocked” and the “Effect on cytotoxic effect of 4-hydroperoxy cyclophosphamide” value ([5]; 10 μM 4-hydroperoxy cyclophosphamide) was “did not block”. The “Effect on cytotoxic effects of cyclophosphamide” value ([5]; 1 mM cyclophosphamide) was “nearly eliminated” and the “Effect on cytotoxic effects of ifosphamide” value ([5]; 2 mM ifosphamide) was “nearly eliminated”.

`CCN(CC)P1(=O)NCCCO1` (centres unmarked) [DCPA, didechlorocyclophosphamide] was tested, and the “Effect on cell proliferation” value [6] was “had no effect”, the “Cell proliferation assay, number of cells” value ([6]; Table V panel A) was 21.51±0.43 ×10^6 and the “Trypsinization and replating assay, cell count” value [7] was 20.58±0.33. The “Secretion effect, C6 colony number” value [8] was 301±4.6.

— patent US5688773A, “Method of selectively destroying neoplastic cells” (priority 1994, dated 1997)
